# Experimental data reported in patent US8679766B2, “E-cadherin as a biomarker of gastroesophageal reflux disease” (The University of North Carolina at Chapel Hill, priority 2009, dated 2014).
# “Also recorded” adds a separate entry of the source. Like-named read-outs stand apart in the source and are kept apart here.
# How the values were obtained:
# [1] = tested on: esophagitis; settings: rat model of reflux; cited from earlier work
# [2] = tested on: esophagitis; settings: patients with duodeno-esophageal reflux post-gastrectomy; cited from earlier work
# [3] = tested on: rabbit EE; test: Barrier breaker search: rabbit EE in U-chambers, monitoring RT (marker of PCP) and Isc; type: cell-based
# From the text: Agents that increase paracellular permeability (PCP) in EE are potential contributors to GERD by enabling diffusion of luminal acid into the intercellular space. Therefore, substances were sought within the refluxate, meals and inflammation that could ‘break the barrier’. This was done by exposing rabbit EE in U-chambers to candidate inflammatory agents while both monitoring RT, as a marker of PCP, and Isc (short circuit current), as a marker of active transport. The inflammatory agents were selected based on presence in EE or on reports that they can break the barrier in other epithelia (47-60).
# [4] = tested on: rabbit EE; settings: cited from earlier work
# [5] = tested on: rabbit EE; test: Ca++-switch technique: junctional opening and resealing (RT) in EE; type: cell-based
# From the text: Below the TJ is the adherens junction (AJ), a structure that encircles the cell and initiates and stabilizes cell-cell adhesion, and by doing so, the AJ supports the barrier function of the TJ (36, 37). The single-pass, transmembrane protein of the AJ is the Ca^++-dependent E-cadherin (E-cad) and this connects directly to a group of catenins (α-catenin, β-catenin, p120-catenin), which in turn connect E-cad to the cytoskeleton via α-catenin's interaction with actin microfilaments, to the microtubules via p120-catenin's interaction with PLEKHA7/nezha and tubulins (38, 39), and to the TJ via p120-catenin's binding to ZO-136. Cell-cell adhesion by E-cad results from the Ca^++-dependent, homotypic, association between the extracellular domains of neighboring cells. Indeed, the Ca^++ sensitivity is so characteristic that it forms the basis of the ‘Ca^++-switch technique’ where Ca^++ removal from both bathing solutions results in junctional opening (decline in RT) and its restoration results in ‘resealing’ (recovery of RT) (40). This method was used to define the role of E-cad in junctional adhesion in EE (41). Removing Ca^++ lowered RT by about 35% over 2 hrs while restoration returned RT to baseline (41). […] Further, resealing was also shown to be dependent on E-cad because it was inhibited by antibodies (HECD-1, DECMA-1) or small synthetic peptides to its extracellular (N-terminal) domain of E-cad, but not by […] antibodies (4A2C7) to its intracellular (C-terminal) domain (41).
# E-cadherin is a component of the adherens junction, a structure known to be important in junctional barrier function in most epithelia, including that of the esophagus (36, 41, 121). It is a single-span, transmembrane protein whose carboxy (C)-terminus resides in the cytoplasm and whose amino (N)-terminus resides in the intercellular space. The N-terminus of E-cadherin molecules from membranes of adjacent cells form a barrier by calcium-dependent binding to each other within the intercellular space. Since the protein bridges of E-cadherin both encircle the cell membrane and support the adhesion of the bridging proteins (occludin and claudins) forming the tight junction, they play an integral role in establishing junctional (electrical) resistance and controlling junctional permeability. This role for E-cadherin in (rabbit) EE has recently been shown in the Ussing chamber using the calcium-switch technique (41).
# [6] = tested on: cleavage of E-cad in rabbit EE; test: Acid-activated cleavage of E-cad in Ussing-chambered rabbit EE, W-blot for CTF with C-terminal antibody 4A2C7; type: cell-based
# [7] = tested on: rabbit EE; test: Junctional opening (RT) of EE by exposure to luminal HCl pH 1.6; type: cell-based; settings: microtubule stabilizer taxol
# [8] = γ-secretase inhibitor 10 μM, acid-exposed EE
compound,measurement,setting,value
CN(C)C(=O)COC(=O)Cc1ccc(OC(=O)c2ccc(NC(=N)N)cc2)cc1 [camostat mesilate],esophagitis,[1],reduce esophagitis
same,esophagitis,[2],reduce esophagitis
CCO [alcohol],breaks the barrier (RT as marker of PCP),[3]; at pH 7.4,barrier breakers
O=S(=O)(O)CCN1CCN(CCO)CC1 [HEPES],luminal acid-induced increase in PCP (reduction in RT),[4]; serosal HEPES,without preventing the luminal acid-induced increase in PCP
same,luminal acid-induced cell necrosis,[4]; serosal buffer replacing bathing solution bicarbonate,prevented
"CC(=O)Nc1ccc(C=Cc2ccc(N=C=S)cc2S(=O)(=O)O)c(S(=O)(=O)O)c1 [SITS, 4-acetoamido-4′-isothiocyanostilbene-2,2′-disulfonic acid]",cell swelling and necrosis,"[4]; serosal HCl pH 2.0, serosal pretreatment 4 mM",prevented
COc1cc2c(c(OC)c1OC)-c1ccc(OC)c(=O)cc1[C@@H](NC(C)=O)CC2 [colchicine],junctional resealing during the Ca++-switch technique,[5]; microtubule destabilizer,inhibited
"trypsin: barrier breaker at pH 7.4, can be present within refluxates of near-neutral pH",breaks the barrier (RT as marker of PCP),[3]; at pH 7.4,barrier breakers
same,"junctional damage by luminal trypsin (DIS, E-cad cleavage)",[3]; luminal exposure,results in both DIS (61) and cleavage of E-cad's extracellular domain
CNC(=O)[C@@H](NC(=O)[C@H](CC(C)C)[C@H](O)C(=O)NO)C(C)(C)C [Marimastat],cleavage of E-cad,"[6]; Marimastat 10 μM, luminal HCl pH 1.1 for 30 min or serosal HCl pH 2.0 for 5 min",blocked; also recorded: abolition
CC(=O)O[C@H]1C(=O)[C@@]2(C)[C@H]([C@H](OC(=O)c3ccccc3)[C@]3(O)C[C@H](OC(=O)[C@H](O)[C@@H](NC(=O)c4ccccc4)c4ccccc4)C(C)=C1C3(C)C)[C@]1(OC(C)=O)CO[C@@H]1C[C@@H]2O [taxol],junctional opening by Ca++-free soln,"[5]; microtubule stabilizer, 50 μM",inhibited
same,junctional resealing,"[5]; taxol, data normalized at the end of junctional opening in Ca++-free solution",Inhibition of resealing
same,junctional opening by exposure to luminal pH 1.6,[7],inhibit junctional opening
C=C1[C@@H](C)[C@H]2[C@H](Cc3ccccc3)NC(=O)[C@]23[C@H](OC(C)=O)/C=C/[C@@](C)(O)C(=O)[C@@H](C)C/C=C/[C@H]3[C@@H]1O [cytochalasin D],junctional resealing during the Ca++-switch technique,"[5]; microfilament destabilizer, 2 uM",inhibited
"C[C@H](NC(=O)Cc1cc(F)cc(F)c1)C(=O)N[C@H](C(=O)OC(C)(C)C)c1ccccc1 [DAPT75, DAPT]",cleavage of E-cad,[6]; [8],did not block cleavage
same,pattern of E-cad cleavage (CTFs on W-blot),[6]; [8],yielding two CTFs instead of one
C[C@H](CCC(=O)NCCS(=O)(=O)O)[C@H]1CC[C@H]2[C@@H]3[C@H](O)C[C@@H]4C[C@H](O)CC[C@]4(C)[C@H]3C[C@H](O)[C@]12C [taurocholic acid],breaks the barrier (RT as marker of PCP),[3]; at pH 2,barrier breakers
